Measurements: article PMC4657098, “A Review of the Updated Pharmacophore for the Alpha 5 GABA(A) Benzodiazepine Receptor Model” (International Journal of Medicinal Chemistry, 2015)
pKi: −log10 of the molar value.

What was measured:
α4β3γ2 GABAA/BzR = target: T1, α4β3γ2 GABAA/BzR (Homo sapiens, UniProt P18507+P48169); assay: biochemical; assay type: binding; details: read-out: Ki α4
T1 construct: expressed in transfected cells; host or cells: LTK cells (given for XLi-093 only)

α2β3γ2 GABAA/BzR = α2β3γ2 GABAA/BzR (Homo sapiens, UniProt P18507+P47869); assay: Competition binding to HEK cell membranes, α2β3γ2; design: expressed in transfected cells; details: read-out: Ki α2
α6β3γ2 GABAA/BzR = α6β3γ2 GABAA/BzR (Homo sapiens, UniProt P18507+Q16445); assay: Competition binding to HEK cell membranes, α6β3γ2; design: expressed in transfected cells; details: read-out: Ki α6
α5β3γ2 GABAA/BzR = α5β3γ2 GABAA/BzR (Homo sapiens, UniProt P18507+P31644); assay: Competition binding to HEK cell membranes, α5β3γ2; design: expressed in transfected cells; details: read-out: Ki α5
α3β3γ2 GABAA/BzR = α3β3γ2 GABAA/BzR (Homo sapiens, UniProt P18507+P34903); assay: Competition binding to HEK cell membranes, α3β3γ2; design: expressed in transfected cells; details: read-out: Ki α3
α1β3γ2 GABAA/BzR = α1β3γ2 GABAA/BzR (Homo sapiens, UniProt P14867+P18507); assay: Competition binding to HEK cell membranes, α1β3γ2; design: expressed in transfected cells; details: read-out: Ki α1

| SMILES | pKi (α4β3γ2 GABAA/BzR) | pKi (α2β3γ2 GABAA/BzR) | pKi (α6β3γ2 GABAA/BzR) | pKi (α5β3γ2 GABAA/BzR) | pKi (α3β3γ2 GABAA/BzR) | pKi (α1β3γ2 GABAA/BzR) |
| --- | --- | --- | --- | --- | --- | --- |
| CCC(OC(=O)c1ncn2c1C1CCCN1C(=O)c1cc(Br)ccc1-2)C(F)(F)F (mixture of isomers) [CM-B34] | 6.94 | 6.35 | 6.76 | 7.77 | 6.65 | 6.33 |
| CCC(OC(=O)c1ncn2c1C1CCCN1C(=O)c1cc(Cl)ccc1-2)C(F)(F)F (mixture of isomers) [CM-B45] | 6.58 | 6.25 | 6.64 | 7.82 | 6.47 | 6.64 |
| CCC(OC(=O)c1ncn2c1C1CCCN1C(=O)c1cc(F)ccc1-2)C(F)(F)F (mixture of isomers) [CM-B47] | 5.70 | 7.20 | 6.14 | 8.36 | 7.47 | 7.49 |
| CC(C)(C)CC(=O)c1cc2c(cn1)[nH]c1ccccc12 [CM-A77] | 6.00 | 7.28 | 6.00 | 7.37 | 6.98 | 7.94 |
| CC(C)(C)OC(=O)c1cc2c(cn1)[nH]c1ccc(I)cc12 [CM-A100] | 6.00 | 7.35 | 6.00 | 7.19 | 6.91 | 7.84 |
| CCOC(=O)c1cc2c(cn1)[nH]c1ccc(I)cc12 [CM-B01] | 6.00 | 7.51 | 6.00 | 6.54 | 7.47 | 8.32 |
| CC[C@H](C)OC(=O)c1ncn2c1[C@@H]1CCCN1C(=O)c1cc(I)ccc1-2 [CM-B31i (ss)] | 7.74 | 6.74 |  | 8.31 | 7.11 | 7.05 |
| CC[C@H](C)OC(=O)c1ncn2c1[C@@H]1CCCN1C(=O)c1cc(F)ccc1-2 [CM-B44 (ss)] | 6.42 | 7.37 | 6.31 | 8.37 | 7.92 | 7.49 |
| CCC(C)OC(=O)c1ncn2c1C1CCCN1C(=O)c1cc(F)ccc1-2 (centres unmarked) [CM-B44] | 6.42 | 7.37 | 6.31 | 8.37 | 7.92 | 7.49 |
| CCOC(=O)c1ncn2c1C1CCN1C(=O)c1cc(OC)ccc1-2 (centres unmarked) [CM-D44] | 9.48 | 7.25 | 9.04 | 9.24 | 7.68 | 7.46 |
| COc1ccc2c(c1)C(=O)N1CCC1c1c(C(=O)OC(C)(C)C)ncn1-2 (centres unmarked) [CM-D45 C19H21N3O4] | 9.82 | 7.18 | 9.64 | 8.78 | 7.52 | 7.04 |
| COc1ccc2c(c1)C(=O)N1CC[C@H]1c1c(C(=O)OC(C)(C)C)ncn1-2 [CM-D45] | 9.82 | 7.18 | 9.64 | 8.78 | 7.52 | 7.04 |
| COc1ccc2c(c1)C(=O)N1CCC[C@H]1c1c(C(=O)OCC(F)(F)F)ncn1-2 [CM-E09a] | 6.31 | 6.72 | 6.14 | 8.04 | 6.91 | 6.75 |
| COc1ccc2c(c1)C(=O)N1CCCC1c1c(C(=O)OC(C)C)ncn1-2 (centres unmarked) [CM-E09b] | 7.26 | 7.66 | 7.16 | 9.35 | 7.72 | 7.70 |
| C#Cc1ccc2c(c1)C(c1ccccc1)=NCc1c(C(=O)OCC(F)(F)F)ncn1-2 [DM-II-20] |  | 7.57 | 5.30 | 7.81 | 7.45 | 7.27 |
| O=C(OCC(F)(F)F)c1ncn2c1CN=C(c1ccccc1)c1ccccc1-2 [DM-II-30] |  | 7.87 | 5.30 | 8.11 | 7.55 | 7.75 |
| O=C(OCC(Cl)(Cl)Cl)c1ncn2c1CN=C(c1ccccc1)c1cc(Br)ccc1-2 [DM-II-33 (C20H13N3O2BrCl3)] |  | 7.07 | 5.30 | 7.58 | 7.94 | 7.05 |
| Cc1nnc2n1-c1ccc(Br)cc1C(c1ccccc1Cl)=NC2 [DM-II-90] |  | 9.00 | 5.30 | 9.43 | 9.20 | 9.30 |
| CC(C)c1nc(-c2ncn3c2CN(C)C(=O)c2c(Cl)cccc2-3)no1 [FG8205, reference compound] |  | 8.68 | 6.64 | 8.81 | 8.94 | 9.40 |
| C#Cc1ccc2c(c1)C(c1cccs1)=NCc1c(C(=O)OCC)ncn1-2 [JC221] |  | 7.31 | 6.44 | 8.11 | 6.74 | 6.97 |
